From ChEMBL document CHEMBL5584238, “Psammaplin A analogues with modified disulfide bond targeting histone deacetylases: Synthesis and biological evaluation” (Eur J Med Chem, 2024)
pIC50: −log10 of the molar value.

Tests used:
NCI-H1581 = experiment: Antiproliferative activity against human NCI-H1581 cells incubated for 48 hrs by MTT assay; type: functional, cell-based; settings: NCI-H1581, 48 h
[1] = Toxicity in mouse assessed as mortality at 5 mg/kg, ip administered every 2 days for 26 days; type: organism-based; settings: in vivo, 624 h, time 26 day

Row | Structure (SMILES) | pIC50 (NCI-H1581) | Activity [1]
1 | O=C(NCC[Se][Se]CCNC(=O)/C(Cc1ccsc1)=N/O)/C(Cc1ccsc1)=N/O | 6.59 | 
2 | O=C(NCC[Se][Se]CCNC(=O)/C(Cc1ccc(O)c(Br)c1)=N/O)/C(Cc1ccc(O)c(Br)c1)=N/O |  | Toxic
